Measured values published in US4956466A, “Thiazole derivatives and process for the preparation thereof” (Laboratorios Vinas, S. A., priority 1988, dated 1990).

Tested on: ethanol-induced ulcers
Experiment: Necrotising agent model: ethanol-induced ulcers
Assay type: in vivo, rat
Procedure: (B) Necrotising agent model:
Using the necrotising agent model, ethanol in this case, described by Robert el al. (Gastroenterology, 77: 433, 1979), the activity of LV-200 was compared with that of Nt at equimolar dose levels and a control group which was administered vehicle.
The table below gives the lesion indices (in ulcerated area in mm) of the three groups studied, as well as the percentage inhibition of the ulcers of the treated groups over the control group (mean values±standard error of the mean).

CNC(=C[N+](=O)[O-])NCCSCc1csc(CN(C)C)n1 [Nt, N-methyl-N'-2-((2(dimethylaminomethyl)-4-thiazolyl)methylthio)ethyl-2-nitro-1,1-ethylenediamine]
inhibition of ulcers induced by absolute ethanol (in words) (absolute ethanol): does not inhibit ulcers
% inhibition of the ulcers over the control group (ethanol, equimolar doses of LV-200 (230 mg/kg) and Nt): 0%
lesion index (ulcerated area), mm lesions (ethanol, equimolar doses of LV-200 (230 mg/kg) and Nt, mean ± standard error of the mean, control 91.2 ± 17.7, LV-200 p < 0.01 vs control, p < 0.001 versus Nt (t test)): 97.7 ± 11.8 mm
